# According to patent publication US4321196A, “Bis-esters of methanediol with acetonides of ampicillin or amoxicillin and penicillanic acid 1,1-dioxide” (Pfizer Inc., priority 1981, dated 1982):
# Test: Serum half-life comparison of Compound I with Compound II in fasted rats, and general statements on absorption and half-life
# Assay type: in vivo
# Conditions: 20 mg/kg oral, versus Compound II (Y=H)
# Protocol: Since the object of the present invention is to provide a single well-absorbed source of ampicillin/amoxicillin and penicillanic acid 1,1-dioxide in serum, the compounds of the present invention are also evaluated by determination of the serum levels of these derived compounds in experimental animals, such as laboratory rats. The serum level results in fasted rats following the oral administration of 20 mg./kg. of 6'-(2,2-dimethyl-4-phenyl-5-imidazolidinon-1-yl)-penicillanoyloxymethyl penicillanate 1,1-dioxide (I, Y=H) are shown in Table I. In this test, 6'-(2-amino-2-phenylacetamido)penicillanoyloxymethyl penicillanate 1,1-dioxide (II, Y=H) at the same oral dosage has been used as control. The blood level of ampicillin was determined by standard plate bioassay methods, using Sarcina lutea 07A001 on Seed agar. For determination of penicillanic acid 1,1-dioxide, Pasturella 59B010 on MH agar was employed. It will be noted there is an approximately 50% improvement in the half-life of Compound I (Y=H) over Compound II (Y=H).
structure (smiles),measurement,value
"CC1(C)S[C@@H]2[C@H](N3C(=O)[C@@H](c4ccccc4)NC3(C)C)C(=O)N2[C@H]1C(=O)OCOC(=O)[C@@H]1N2C(=O)C[C@H]2S(=O)(=O)C1(C)C [Compound I (Y = H), 6'-(2,2-Dimethyl-4-phenyl-5-imidazolidinon-1-yl)-penicillanoyloxymethyl Penicillanate 1,1-Dioxide]",Improvement in the half-life over Compound II (Y=H),approximately 50%
